Source: patent publication US20220280513A1, “ENHANCING THE ANTIVIRAL EFFICACY OF RNA VIRUS INHIBITION BY COMBINATION WITH MODULATORS OF PYRIMIDINE METABOLISM” (The Board of Trustees of the Leland Stanford Junior …, priority 2019, published 2022)
Like-named read-outs stand apart in the source and are kept apart here.

Columns and labels:
recombinant human UCK2 = target: T1, recombinant human UCK2 (Homo sapiens, UniProt Q9BZX2); test: In vitro enzyme activity assay with recombinant human UCK2 (PK/LDH-coupled, UV 340 nm); assay type: biochemical; conditions: for UCK2 substrate or not (ATP consumption): 250 μM analog in the presence of 50 μM uridine
T1 construct: 6xHis (C); made in house; host or cells: E. coli BL21(DE3)
T1 sequence (Q9BZX2 1-261): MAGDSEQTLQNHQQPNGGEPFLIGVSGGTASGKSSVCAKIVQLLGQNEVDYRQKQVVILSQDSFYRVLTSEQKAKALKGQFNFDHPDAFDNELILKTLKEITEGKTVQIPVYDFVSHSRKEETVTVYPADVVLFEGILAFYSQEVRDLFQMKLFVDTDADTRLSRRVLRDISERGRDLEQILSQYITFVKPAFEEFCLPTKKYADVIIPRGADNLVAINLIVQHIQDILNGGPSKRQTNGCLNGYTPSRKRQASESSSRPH
Text: (§1) In order to guide our SAR studies, we developed an enzymatic assay to evaluate the inhibitory effect of each CPU analog against recombinant human UCK2, which was expressed and purified in E. coli. A continuous assay system was optimized by coupling UCK2 activity to the pyruvate kinase (PK) reaction, which in turn was coupled to lactate dehydrogenase (LDH). Overall reaction progress was continuously monitored by detecting the UV absorption change at 340 nm, which was correlated with the ATP consumption by UCK2. The effect of 250 μM of each CPU analog on UCK2 activity was evaluated in the presence of 50 μM uridine. […] We then individually measured the steady state kinetic parameters of UCK2 using uridine, CPU and 5-F-CPU as substrates. Their KM values were 86, 25, and 41 μM, and their kcat/KM values were 2.6×10^5, 1.5×10^5, and 7.3×10^4 s^−1 M^−1 (FIG. 5B).
(§2) Cloning, expression and purification of recombinant human UCK2 and CMPK1: Uridine cytidine kinase 2 (UCK2) was cloned into the pET-21a(+) vector using Ndel and Notl as restriction sites. […] The resulting plasmid was transformed into E. coli BL21(DE3) cells by electroporation, recovered in SOC at 37° C. for 1 h and plated onto LB agar plates with kanamycin overnight at 37° C. A single, isolated colony was inoculated into 30 mL LB supplemented with 50 μg/mL kanamycin and grown at 37° C. with shaking for 15 h. The next day, these cells were used to inoculate 1 L autoclaved LB with 50 μg/mL kanamycin. The flask was shaken at 37° C. When an optical density (OD600) of 0.7 was reached, protein expression was induced with 0.5 mM isopropyl β-D-1-thiogalactopyranoside (IPTG). The temperature was changed to 18° C. and flasks were shaken for an additional 15 h. The cell pellets were collected by spinning the media at 5000 rpm for 10 min. The pellets obtained were frozen by liquid nitrogen and stored in −80° C. for protein purification. Cell pellets were thawed and resuspended in lysis buffer containing Tris (40 mM, pH 7.5), NaCl (10 mM), imidazole (10 mM), DTT (1 mM). Cells were lysed by sonication and centrifuged at 25,000 g for 1 h. The supernatant was incubated with a slurry of Ni-NTA resin for 1 h at 4° C. and loaded onto a column. The nickel column wash buffer was Tris (40 mM, pH 7.5), NaCl (10 mM), DTT (1 mM) and each wash step contained increasing concentrations of imidazole (10, 50, or 250 mM). After SDS-PAGE confirmation of the protein fractions, protein was further purified using fast protein liquid chromatography (FPLC) using buffer A (50 mM Tris-HCl pH 8, 1 mM dithiothreitol (DTT), 10% glycerol) and elution buffer B (50 mM Tris-HCl pH 8, 1mM dithiothreitol (DTT), 10% glycerol with 500 mM NaCl) with changing gradient over a 20 minute from 2% to 100% Buffer B. FPLC eluents containing the protein was concentrated using Am icon centrifugal filter with 3K cut-off and the enzyme was stored in storage buffer (50 mM Tris-HCl pH 7.5, 10% glycerol). Human cytidine monophosphate kinase 1 (CMPK1) was purified as previously described (Deans et al., 2016).
(§3) In vitro enzyme activity assays with recombinant human UCK2: To continuously monitor reaction progress spectrophotometrically, ATP hydrolysis was coupled to NADH oxidation via pyruvate kinase (PK) and lactate dehydrogenase (LDH). Reactions were conducted at room temperature in 100 μL in 96-well plates (Greiner Bio-One, UV-Star, Half Area). Mixtures contained 20 mM HEPES (pH 7.2), 100 mM KCl, 2 mM MgCl2, 300 μM ATP, 0-500 μM uridine, 0-500 μM CPU analogs, 10 nM UCK2, 1 mM phosphoenolpyruvate, 500 μM NADH and 20 units/mL of PK and LDH. Progress was monitored in the linear region using a Biotek Synergy HT and kinetic and inhibition constants were determined using GraphPad Prism 7 (GraphPad Software).

DENV-2 virus = test: DENV antiviral assay, DENV-Luc replication in A549 cells (FIGS. 8 and 9); assay type: cell-based, dengue serotype 2 (DENV-2) strain 16681
Description: DENV-Luc reporter virus generation: The design of the pDENV-Luc infectious clone derived from dengue serotype 2 (DENV-2) strain 16681 was described in detail by Marceau et al (Marceau et al., 2016). The plasmid was linearized with Xbal and in vitro transcribed into the genomic RNA of DENV-Luc virus using the T7 Megascript Kit (Ambion) in the presence of m7G(5′)ppp(5′)G RNA Cap Structure Analog (NEB). 5 μg DENV-Luc RNA was electroporated into 2×10^6 Vero cells. The transfected cells were resuspended with Dulbecco's modified Eagle's medium (DMEM; Invitrogen) with 10% FBS and 100 U/ml penicillin-streptomycin and transferred into a T-175 flask incubated at 37° C. with 5% CO2. Supernatants were collected and replenished with fresh medium every 24 h from day 17 to 24 post-transfection, pooled together, clarified by centrifugation and stored in aliquots at −80° C. The amount of infectious DENV-Luc virus in the stock was titrated using the TCID50 assay and calculated by the Spearman & Kärber algorithm as described previously (Hierholzer and Killington, 1996).
DENV antiviral assays (For FIGS. 8 and 9): A549 cells were plated overnight at 5,000 cells/well in 96-well plates in complete DMEM and incubated for 24 h at 37° C. Cells were then treated with pyrimidine de novo synthesis inhibitors, and/or salvage inhibitors, and/or R1479 in DMEM supplemented with 20 μM uridine. Four hours after drug addition, cells were infected with DENV-2 virus at a MOI=0.1. After 72 h, DENV-Luc replication was monitored by the production of Renilla luciferase, which was measured using the Renilla-Glo Luciferase Assay System (Promega) according to the specifications of the manufacturer. For the accompanying cell viability assay, A549 cells were seeded at 5,000 cells/well in 96-well plates in complete DMEM and incubated for 24 h at 37° C. Cell were then treated with pyrimidine de novo synthesis inhibitors, and/or salvage inhibitors, and/or R1479 in DMEM supplemented with 20 μM uridine. Following 48 h treatment, cell viability was monitored by ATP levels, which was measured using the CellTiter-Glo Luciferase Assay System (Promega) according to the specifications of the manufacturer.

[1] = substrate: O=c1ccn([C@@H]2C=C(CO)[C@@H](O)[C@H]2O)c(=O)[nH]1; test: In vitro enzyme activity assay with recombinant human UCK2 (PK/LDH-coupled, UV 340 nm); assay type: biochemical; conditions: other: steady state kinetic parameters of UCK2 with the compound as substrate
Text: as §1, §2, §3

[2] = substrate: O=c1ccn([C@@H]2O[C@H](CO)[C@@H](O)[C@H]2O)c(=O)[nH]1; test: as above; assay type: biochemical; conditions: other: steady state kinetic parameters of UCK2 with the compound as substrate
Text: as §1, §2, §3

[3] = substrate: O=c1[nH]c(=O)n([C@@H]2C=C(CO)[C@@H](O)[C@H]2O)cc1F; test: as above; assay type: biochemical; conditions: other: steady state kinetic parameters of UCK2 with the compound as substrate
Text: as §1, §2, §3

With `O=c1[nH]c(=O)n([C@@H]2C=C(CO)[C@@H](O)[C@H]2O)cc1F` [5-F-CPU, 1-((1R,4R,5S)-4,5-dihydroxy-3-(hydroxymethyl)cyclopent-2-en-1-yl)-5-fluoropyrimidine-2,4(1H,3H)-dione] the “UCK2 substrate or not (ATP consumption)” value (recombinant human UCK2) was “substrates of UCK2” and the “rate of UMP synthesis” value (recombinant human UCK2; added to assay mixture containing UCK2, uridine (50 μM) and ATP) was “dose-dependent decrease”.

`CC1=C[C@@H](n2ccc(=O)[nH]c2=O)[C@H](O)[C@@H]1O` [5′-deoxy-CPU, 1-((1R,4R,5S)-4,5-dihydroxy-3-methylcyclopent-2-en-1-yl)pyrimidine-2,4(1H,3H)-dione] was tested, and the “UCK2 substrate or not (ATP consumption)” value (recombinant human UCK2) was “inhibitors but not substrates” and the Ki (recombinant human UCK2; competitive inhibitors of UCK2, Lineweaver-Burk analysis) was 230 µM.

For `[N-]=[N+]=N[C@]1(CO)O[C@@H](n2ccc(N)nc2=O)[C@H](O)[C@@H]1O` [R1479, 4′-azidocytidine], the “influence of GSK983 alone on the antiviral activity of R1479” value (DENV-2 virus; 1 μM GSK983 added, no CPU, 20 μM uridine) was “negligible influence”, the EC50 (DENV-2 virus; Dengue virus, DENV2, A549, 20 μM uridine, without GSK983 and CPU, read-out: EC50, inhibition of dengue virus replication, R1479 as single agent) was roughly 35 µM and the EC50 (DENV-2 virus; Dengue virus, DENV2, A549, in the presence of 250 μM CPU and 1 μM GSK983, 20 μM uridine, read-out: EC50 of R1479 in combination) was no more than 8 µM. The EC50 (DENV-2 virus; in the presence of 250 μM CPU and 1 μM GSK983, 20 μM uridine, read-out: EC50 of R1479 in combination) was roughly 8 µM.

B1: recombinant human UCK2 (Homo sapiens) (protein)
chain: T1 sequence (Q9BZX2 1-261)
notes: 6xHis (C); made in house; host or cells: E. coli BL21(DE3)
In the case of B1, the Km [1] is reported as 25 µM, the kcat/Km [1] is reported as 150000 M⁻¹ s⁻¹ and the Km [2] is reported as 86 µM. For the same molecule, the kcat/Km [2] was 260000 M⁻¹ s⁻¹, the Km [3] was 41 µM and the kcat/Km [3] was 73000 M⁻¹ s⁻¹.
